Measurements reported in US7369696B2, “Classification of cells into subpopulations using cell classifying data” (GE Healthcare UK Limited, priority 2003, dated 2008).

Test system: U2OS cells (ATCC HTB-96) transfected with cyclin B1 promoter/D-box/CRS-GFP cell cycle reporter construct
Experiment: Effect of cell cycle blocking agents on GFP fluorescence from cell cycle phase marker, transiently transfected cells
Format: cell-based
Settings: U2OS cells 24 hours after transfection, exposed to blocker for a further 24 hours; confocal scanning imager with automated image analysis; control = culture media alone
Procedure: U2OS cells (ATCC HTB-96) were cultured in wells of a 96 well microtitre plate. Cells were transfected with a cell cycle reporter construct prepared according to Example 1, comprising a cyclin B1 promoter operably linked to sequences encoding the cyclin B1 D-box, the cyclin B1 CRS, and GFP in a pCORON4004 vector (Amersham Biosciences) using Fugene 6 (Roche) as the transfection agent.
Following 24 hours of culture, cells were exposed to the specific cell cycle blockers mimosine (blocks at G1/S phase boundary) or demecolcine (blocks in M phase). Control cells were exposed to culture media alone.
Cells were incubated for a further 24 hours and then analysed for nuclear GFP expression using a confocal scanning imager with automated image analysis (IN Cell Analysis System, Amersham Biosciences).

NC(Cn1ccc(=O)c(O)c1)C(=O)O (centres unmarked) [mimosine]
nuclear GFP expression (fluorescence) compared to control cells: decreased fluorescence compared to control cells

CN[C@H]1CCc2cc(OC)c(OC)c(OC)c2-c2ccc(OC)c(=O)cc21 [demecolcine]
nuclear GFP expression (fluorescence) compared to control cells: increased fluorescence compared to control cells
